Data: patent US9868695B2 (priority 2014, dated 2018)
Values after ≈ are worked out from the molar mass of the structure shown. Read-outs that look alike come from different tables or passages of the source.

Experiments:
[1] = tested on: Ehrlich solid tumor; experiment: In vivo activity in Ehrlich solid tumor model; parameters: species or system swiss mice; settings: for % Tumor Growth Inhibition: day 13 vs saline control; for Mortality: dead/group size
Procedure: Ehrlich ascites carcinoma (EAC) cells were collected from the peritoneal cavity of the swiss mice (animal house of IIIM registered eith CPCSEA; registration no. 67/99/CPCSEA) weighing 18-23 gm, harbouring 8-10 days old ascitic tumor. 1×10^7 EAC cells were injected intramuscularly in the right thigh of 38 swiss male mice selected for the experiment on day 0. The next day, animals were randomized and divided into five groups. Four treatment groups contained 7 animals each and one control group contained 10 animals. Treatment was given as follows:
Group I: 1 (0.75 mg/kg, i/p) from day 1-9.
Group II: 1g (1 mg/kg, i/p) from day 1-9.
The third treatment group was treated with 5-fluorouracil (22 mg/kg, i/p) from day 1-9 and it served as positive control. The control group was similarly administered normal saline (0.2 ml, i/p) from day 1-9. On day 9 & 13, tumor bearing thigh of each animal was shaved and longest and shortest diameters of the tumor were measured with the help of vernier caliper. Tumor weight of each animal was calculated using the following formula.
The percent tumor growth inhibition was calculated on day 13 by comparing the average values of treated groups with that of control group. Tumor growth in saline treated control animals was taken to be 100%.

[2] = tested on: microtubules in HCT-116 cells; experiment: Effect of compounds on microtubules, confocal microscopy; type: cell-based, Human; settings: 100 nM, 24 h, anti-α-tubulin staining, compared to control
Procedure: For detection of tubulins, HCT-116 cells (1×10^5 cells/well) were seeded on to 18 mm square cover slips in six well plates in complete medium. […] After the treatment period, cells were fixed in 4% paraformaldehyde for 10 min at room temperature and permeabilized using 0.5% Triton-X in PBS for 5 min. The cells were blocked with 10% goat serum for 20 min at room temperature. Microtubules were detected with a monoclonal α-tubulin antibody (Sigma, Catalogue number: T9026) diluted 1:100 in 0.1% Triton X-100 in PBS for 1 h at room temperature and Alexa Fluor 488 conjugated secondary antibody (Invitrogen) diluted 1:500 in PBS for 1 h at room temperature. Cells were then washed three times in PBS and stained with 4′,6-diamidino-2-phenylindole (DAPI 1 μg/ml in PBS). The cover slips were mounted over glass slides and cells were imaged by a laser scanning confocal microscope (Olympus Fluoview FV1000). The promising candidates identified through P-gp screening and antiproliferative screening were further studied for tubulin polymerization inhibition activity.

[3] = Thermodynamic equilibrium solubility; type: physicochemical; settings: 25 °C, thermodynamic from solid, 25±1° C.
Procedure: The compounds were first dissolved in methanol to prepare stock solutions (100 and 1000 μg/mL). Different concentrations of stock solutions were pipetted into the 96-well plates and the solvent was evaporated to ensure that solid drug was present in the beginning of the experiment. Thereafter, 200 μl of the dissolution medium was added to the wells and 96-well plate was shaken horizontally at 300 rpm (Eppendorf Thermoblock Adapter, North America) for 4 h at room temperature (25±1° C.). The plates were kept overnight for equilibration of drug in medium. Later, the plates were centrifuged at 3000 rpm for 15 min (Jouan centrifuge BR4i). Supernatant (50 μl) was pipetted into UV 96-well plates (Corning® 96 Well Clear Flat Bottom UV-Transparent Microplate) for analyses with plate reader (SpectraMax Plus384) at λmax of 350 nm. The analyses were performed in triplicate for each compound. The solubility curve of concentration (μg/mL) vs absorbance was plotted to find out saturation point and the corresponding concentration was noted.

[4] = tested on: P-gp; experiment: P-gp induction assay, rhodamine123 (Rh123) cell exclusion method in LS-180 cells; settings: for % intracellular accumulation of Rh123 in LS180 cells: compound 100 nM, decrease indicates P-gp induction; for % intracellular accumulation of Rh123 in LS180 cells / EC50: 48 h; for EC50: read-out: EC50, induction of P-gp, P-gp overexpressing LS-180 cells
Procedure: All synthesized compounds were screened for their ability to induce P-gp by using rhodamine123 (Rh123) cell exclusion method. In this method, the P-gp function was evaluated in terms of rhodamine 123 (Rh123) accumulation and efflux. Briefly, the protocol used is as follows: Colorectal LS-180 cells (ECACC type, purchased from Sigma, Cat. no. 87021202, cell passage no. 52) were seeded at a density of 2×10^4 per well of 96 well plate and were allowed to grow for next 24 h. Cells were further incubated with the test compounds, and were diluted to a final concentration of 100 nM and rifampicin (standard) to a final concentration of 10 μM in complete media for 48 h. The final concentration of DMSO was kept at 0.1%. Drugs were removed and cells were incubated with HANKS buffer for 40 minutes before further incubation with HANKS buffer (containing 10 μM of Rh123 as a P-gp substrate) for 90 minutes. At the end of Rh123 treatment cells were washed four times with cold PBS followed by cell lysis for 1 h by using 200 μl of lysis buffer (0.1% Triton X-100 and 0.2 N NaOH). A total of 100 μl of lysate was used for reading fluorescence of Rh123 at 485 nm/529 nm. Samples were normalized by dividing fluorescence of each sample with total protein present in the lysate. For EC50 determination, different concentrations of compound were used to treat LS180 cells for 48 h. EC50 was determined by plotting fluorescence of Rh123 against concentration of compound.

[5] = tested on: Colo-205; experiment: Antiproliferative activity, MTT assay, Colo-205; type: cell-based; settings: Homo sapiens, 48 h
Procedure: (§1) Human colon cancer cell lines HCT-116 (NCI, passage no. 5) and Colo-205 116 (NCI, passage no. 3) were procured from National Cancer Institute, USA. HCT-116 and Colo-205 cells were grown in McCoy's 5A and RPMI growth medium respectively containing 10% FCS, 100 U penicillin and […] per mL medium. Cells were grown in CO2 incubator (Thermocon Electron Corporation, Houston, Tex.) at 37° C. with 95% humidity and 5% CO2 gas environment. Cells treated with tested materials were dissolved in DMSO while the untreated control cultures received only the vehicle (DMSO<0.2%). Cells were seeded in 96 well plates and exposed to tested compounds at various concentrations for 48 h time interval. MTT dye (2.5 mg/ml in PBS) was added 4 hrs priors to experiment termination. The plates were then centrifuged at 1500 rpm for 15 min and the supernatant was discarded, and MTT formazan crystals were dissolved in 150 μl of DMSO. The OD measured at 570 nm with reference wavelength of 620 nm.
(§2) The percentages of cell viability and growth inhibition were calculated using formulas: […]

[6] = tested on: HCT-116; experiment: Antiproliferative activity, MTT assay, HCT-116; type: cell-based, Human
Procedure: as §1, §2

[7] = day 13, i/p day 1-9, 1 0.75 mg/kg, 1g 1 mg/kg, 5-fluorouracil 22 mg/kg
[8] = i/p day 1-9, 1 0.75 mg/kg, 1g 1 mg/kg, 5-fluorouracil 22 mg/kg
[9] = aqueous buffer, phosphate buffer saline, read-out: Solubility, PBS
[10] = fassgf or other biorelevant, simulated intestinal fluid, read-out: Solubility, SIF
[11] = simulated gastric fluid, read-out: Solubility, SGF
[12] = water, read-out: Solubility, Water

For `O=c1[nH]cc(F)c(=O)[nH]1` [5-Fluorouracil], the “Day 13 Avg. tumor weights” value [1, 7] was 668.2 mg, the “% Tumor Growth Inhibition” value [1, 8] was 54.78% and the Mortality [1, 8] was 0/7.
In the case of `COc1cc2c(c(OC)c1OC)-c1ccc(OC)c(=O)cc1[C@@H](NC(C)=O)CC2` [Compound 1, Colchicine], the “disruption of microtubule assembly” value [2] is reported as “remarkable disruption and loss of microtubules”, the solubility [3, 9] is reported as 800 µg/mL (≈ 2000 µM) and the solubility [3, 10] is reported as 800 µg/mL (≈ 2000 µM). For the same molecule, the solubility [3, 11] was 200 µg/mL (≈ 501 µM), the solubility [3, 12] was over 1500 µg/mL and the “mortality, animals in the group of 7 animals” value ([1]; colchicine 0.75 mg/kg, i/p) was 2 animals. For the same molecule, the “mortality, animals in the group of 7 animals” value ([1]; colchicine 1 mg/kg, i/p, text and footnote) was 5 animals, the “Avg. body weights (g) of animal on days 1” value ([1]; day 1, i/p day 1-9, 1 0.75 mg/kg, 1g 1 mg/kg, 5-fluorouracil 22 mg/kg) was 22.28 g and the “Avg. body weights (g) of animal on days 5” value ([1]; day 5, i/p day 1-9, 1 0.75 mg/kg, 1g 1 mg/kg, 5-fluorouracil 22 mg/kg) was 21.42 g. For the same molecule, the “Avg. body weights (g) of animal on days 9” value ([1]; day 9, i/p day 1-9, 1 0.75 mg/kg, 1g 1 mg/kg, 5-fluorouracil 22 mg/kg) was 20.2 g, the “Day 13 Avg. body weights” value [1, 7] was 19.25 g and the “Day 13 Avg. tumor weights” value [1, 7] was 705.0 mg. The “% Tumor Growth Inhibition” value [1, 8] was 52.29%, the Mortality ([1]; colchicine 1 mg/kg, i/p) was 5/7 and the Mortality [1, 8] was 2/7. For the same molecule, the “% intracellular accumulation of Rh123 in LS180 cells” value ([4]; control = 100%) was 62% and the EC50 [4] was 0.0144 µM.
With `COc1cc2c(c(OC)c1OC)-c1ccc(N3CCNCC3)c(=O)cc1[C@@H](NC(C)=O)CC2` [Compound 1a, N-[(7S)-1,2,3-Trimethoxy-9-oxo-10-(piperazin-1-yl)-5,6,7,9-tetrahydrobenzo[a]heptalen-7-yl]acetamide] the melting point was 158 to 161 °C, the IC50 [5] was 8 µM and the “% intracellular accumulation of Rh123 in LS180 cells” value ([4]; control = 100%) was 90%. The IC50 ([6]; Homo sapiens, HCT-116, 48 h) was over 10 µM.
For `COc1cc2c(c(OC)c1OC)-c1ccc(N3CCC(N)CC3)c(=O)cc1[C@@H](NC(C)=O)CC2` [Compound 1b, N-[(7S)-1,2,3-Trimethoxy-9-oxo-10-(4-amino-piperidin-1-yl)-5,6,7,9-tetrahydrobenzo[a]heptalen-7-yl]acetamide], the IC50 [5] was 5 µM, the “% intracellular accumulation of Rh123 in LS180 cells” value ([4]; control = 100%) was 90% and the IC50 ([6]; Homo sapiens, HCT-116, 48 h) was 10 µM.
Molecule `COc1cc2c(c(OC)c1OC)-c1ccc(N3CCN(C(=O)OC(C)(C)C)CC3)c(=O)cc1C(NC(C)=O)CC2` [Compound 1c, N-[(7S)-1,2,3-Trimethoxy-9-oxo-10-(N-boc-piperazin-1-yl)-5,6,7,9-tetrahydrobenzo[a]heptalen-7-yl]acetamide] has an IC50 [5] of 3 µM and an IC50 ([6]; Homo sapiens, HCT-116, 48 h) of 4 µM.
Molecule `COc1cc2c(c(OC)c1OC)-c1ccc(N3CCC(c4ccccc4)CC3)c(=O)cc1C(NC(C)=O)CC2` [Compound 1d, N-[(7S)-1,2,3-Timethoxy-9-oxo-10-(4-phenyl-piperidin-1-yl)-5,6,7,9-tetrahydrobenzo[a]heptalen-7-yl]acetamide] has a solubility [3, 9] of 80 µg/mL (≈ 151 µM), a solubility [3, 10] of 20 µg/mL (≈ 37.8 µM) and a solubility [3, 11] of over 1500 µg/mL. The solubility [3, 12] was 80 µg/mL (≈ 151 µM), the IC50 [5] was 0.8 µM and the “% intracellular accumulation of Rh123 in LS180 cells” value ([4]; control = 100%) was 90%. It also gave an EC50 [4] of 0.0296 µM, an IC50 ([6]; 48 h) of 1 µM and an IC50 ([6]; Homo sapiens, HCT-116, 48 h) of at most 1 µM.
With `COc1cc2c(c(OC)c1OC)-c1ccc(N3CCC[C@@H]3CO)c(=O)cc1C(NC(C)=O)CC2` (stereo partly drawn) [Compound 1e, N-[(7S)-1,2,3-Trimethoxy-9-oxo-10-(L-prolinol-1-yl)-5,6,7,9-tetrahydrobenzo[a]heptalen-7-yl]acetamide] the IC50 [5] was 8 µM and the IC50 ([6]; Homo sapiens, HCT-116, 48 h) was 10 µM.
For `COc1cc2c(c(OC)c1OC)-c1ccc(N3CCc4c([nH]c5ccccc45)C3)c(=O)cc1[C@@H](NC(C)=O)CC2` [Compound 1f, N-[(7S)-1,2,3-Trimethoxy-9-oxo-10-(2,3,4,9-tetrahydro-1H-pyrido[3,4-b]indole-2-yl)-5,6,7,9-tetrahydrobenzo[a]heptalen-7-yl]acetamide], the IC50 [5] was 0.8 µM, the “% intracellular accumulation of Rh123 in LS180 cells” value ([4]; control = 100%) was 90% and the IC50 ([6]; Homo sapiens, HCT-116, 48 h) was 3 µM.
With `CO[C@H]1/C=C/O[C@@]2(C)Oc3c(C)c(O)c4c(O)c(c(/C=N/N5CCN(C)CC5)c(O)c4c3C2=O)NC(=O)/C(C)=C\C=C\[C@H](C)[C@H](O)[C@@H](C)[C@@H](O)[C@@H](C)[C@H](OC(C)=O)[C@@H]1C` [rifampicin, reference compound] the “% intracellular accumulation of Rh123” value ([4]; rifampicin 10 μM, positive control, control = 100%) was 69%.
